Laboratory results: US6579696B1, “Polymyxin B conjugates” (priority 1992, dated 2003)
In brackets after ≈: the same amount, converted by molar mass. Like-named read-outs stand apart in the source and are kept apart here. Bridge positions count the residues as written; N and C are the ends. Square brackets hold non-standard residues; d marks the D form. Peptide text beside a SMILES is read from it. * marks the point of attachment. Fluorescein(5-Mal) = O=C1OC2(c3ccc(O)cc3Oc3cc(O)ccc32)c2ccc(N3C(=O)CC(*)C3=O)cc21; Ileψ(thiazoline)Cys = CC[C@H](C)[C@H](N)C1=N[C@H](C(=O)*)CS1; Succinimide(1-Et,3-yl) = CCN1C(=O)CC(*)C1=O; dOrn = NCCC[C@@H](N)C(=O)O

Experiments:
type I pili = type I pili (Escherichia coli, UniProt P08191)
S. aureus = experiment: MIC testing against S. aureus; type: cell-based, Staph. aureus; settings: for activity against S. aureus (in words): controls at concentrations used in the derivatization
Protocol: 1.5 ml fractions were collected. The fractions in the void volume were pooled and sterile filtered. The activity of the conjugate was determined by standard MIC testing against S. aureus.

[1] = test system: Staphylococcus epidermidis; experiment: MIC and MBC; type: cell-based
[2] = test system: J5 bacteria phagocytosed by J774A.1 mouse macrophage cell line; type: cell-based
E. coli H16 [3] = test system: E. coli H16
E. coli H16 [4] = type: cell-based; settings: for BDA: Table 42
Salmonella 34576 = settings: Table 43
E. coli = experiment: MIC assays, summary of modified PMB's; settings: relative to PMB
Protocol: The MIC assays were performed as follows. Bacteria were grown overnight on TSB (Trypticase Soy Broth) plates at 37 degrees, and bacteria resuspended in sterile PBS to equal a #1 McFarland suspension. The suspension is diluted in TSB to a concentration of 5×10^5 organisms/ml. This diluted sample is the innoculum. Serial 2 fold dilutions of the conjugate to be tested are made in TSB (0.5 ml final volume of each dilution) in polystyrene tubes. 0.5 ml bacterial innoculum was added to each dilution tube. The conjugate concentrations are thus 2× the final concentration to be tested. Control tubes containing TSB alone, antimicrobial agent alone, and innoculum alone are also set. The tubes are vortexed and grown overnight in 37 degree incubator. […] Where two numbers are shown, the second number is the MIC of free PMB determined in the same experiment.

[5] = concentration expressed as absorbance at 280 nm
[6] = Table 40, first number of the cell

type I pili, sequence (P08191 22-300): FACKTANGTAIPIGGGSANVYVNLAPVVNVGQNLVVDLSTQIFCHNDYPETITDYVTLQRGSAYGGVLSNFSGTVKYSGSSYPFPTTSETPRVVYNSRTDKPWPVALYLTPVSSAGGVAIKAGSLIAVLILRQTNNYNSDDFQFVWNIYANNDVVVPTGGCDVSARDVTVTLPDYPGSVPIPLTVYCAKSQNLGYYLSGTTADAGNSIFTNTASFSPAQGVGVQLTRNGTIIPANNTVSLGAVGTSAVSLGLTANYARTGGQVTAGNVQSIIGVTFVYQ
type I pili, sequence (P08190 24-167 partner): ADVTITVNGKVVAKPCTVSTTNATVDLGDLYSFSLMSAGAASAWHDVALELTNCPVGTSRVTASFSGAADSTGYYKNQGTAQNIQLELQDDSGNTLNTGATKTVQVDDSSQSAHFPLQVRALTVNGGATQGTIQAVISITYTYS
type I pili, sequence (P08189 23-176 partner limits assumed): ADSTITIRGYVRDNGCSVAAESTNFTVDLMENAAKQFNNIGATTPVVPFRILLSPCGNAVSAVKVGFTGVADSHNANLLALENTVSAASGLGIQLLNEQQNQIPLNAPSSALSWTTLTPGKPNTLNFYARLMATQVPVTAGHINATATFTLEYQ
type I pili, sequence (P04128 24-182 partner): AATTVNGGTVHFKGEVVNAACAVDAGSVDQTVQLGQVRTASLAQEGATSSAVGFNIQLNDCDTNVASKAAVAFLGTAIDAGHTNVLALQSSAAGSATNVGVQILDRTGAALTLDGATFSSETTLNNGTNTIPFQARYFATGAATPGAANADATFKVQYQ

With `N[C@@H](Cc1ccccc1)C(=O)Nc1ccc(O[C@H]2O[C@H](CO)[C@@H](O)[C@H](O)[C@@H]2O)cc1` [4-(N-phenylalanyl)-aminophenyl-α-D-mannopyranoside] the “activity relative to methyl α-mannopyranoside” value (type I pili) was “approximately 1000 fold”.

`CC(=O)OCC1=C(C(=O)O)N2C(=O)[C@@H](N)[C@H]2SC1` [7-aminocephalosporanic acid] showed an MIC (S. aureus; [5]) of 3.7 A280.

Work on `CC[C@H](C)[C@H](N)C1=N[C@H](C(=O)N[C@@H](CC(C)C)C(=O)N[C@H](CCC(=O)O)C(=O)N[C@H](C(=O)N[C@H]2CCCCNC(=O)[C@H](CC(N)=O)NC(=O)[C@@H](CC(=O)O)NC(=O)[C@H](Cc3cnc[nH]3)NC(=O)[C@@H](Cc3ccccc3)NC(=O)[C@H]([C@@H](C)CC)NC(=O)[C@@H](CCCN)NC2=O)[C@@H](C)CC)CS1` [Bacitracin] ({Ileψ(thiazoline)Cys}-L[dE]IK[dOrn]I[dF]H[dD]N; lactam 4-C) yielded an MIC ([1]; Table 25) of 25 µg/mL (≈ 17.6 µM) and an MBC ([1]; Table 25, read-out: MBC) of 50 µg/mL (≈ 35.1 µM).

In the case of `CC(C)C[C@H](NC(=O)[C@H](C)N)C(=O)N[C@@H](Cc1ccc(O)cc1)C(=O)N[C@@H](CCCCN)C(=O)N[C@@H](CCCCN)C(=O)N[C@@H](CC(C)C)C(=O)N[C@@H](CC(C)C)C(=O)N[C@@H](CCCCN)C(=O)N[C@@H](CCCCN)C(=O)N[C@@H](CC(C)C)C(=O)N[C@@H](CC(C)C)C(=O)N[C@@H](CCCCN)C(=O)N[C@@H](CO)C(=O)N[C@@H](C)C(=O)N[C@@H](CCCCN)C(=O)N[C@@H](CCCCN)C(=O)N[C@@H](CC(C)C)C(=O)NCC(=O)N[C@@H](CSC1CC(=O)N(c2ccc3c(c2)C(=O)OC32c3ccc(O)cc3Oc3cc(O)ccc32)C1=O)C(N)=O` (stereo partly drawn) [C19G-Mal-FL] (H-ALYKKLLKKLLKSAKKLGC(Fluorescein(5-Mal))-NH2; N-terminus assumed), the “% Macrophage with phagocytosed bacteria” value ([2]; Table 61 (repeat assay), 1×10^8 J5 bacteria opsonized, from 100 macrophage examined, conjugates 0.5 ug/ml, anti-avidin 1/400, anti-fluorescein antibody 14 ug/ml) is reported as 8%, the “enhancement of phagocytosis (in words)” value ([2]; with anti-fluorescein antibody) is reported as “prevents the C19g-Mal-FL conjugate from enhancing bacterial phagocytosis” and the MIC (E. coli H16 [3]) is reported as 10 µg/mL (≈ 3.89 µM).

In the case of `CCN1C(=O)CC(SC[C@H](NC(=O)CNC(=O)[C@H](CC(C)C)NC(=O)[C@H](CCCCN)NC(=O)[C@H](CCCCN)NC(=O)[C@H](C)NC(=O)[C@H](CO)NC(=O)[C@H](CCCCN)NC(=O)[C@H](CC(C)C)NC(=O)[C@H](CC(C)C)NC(=O)[C@H](CCCCN)NC(=O)[C@H](CCCCN)NC(=O)[C@H](CC(C)C)NC(=O)[C@H](CC(C)C)NC(=O)[C@H](CCCCN)NC(=O)[C@H](CCCCN)NC(=O)[C@H](Cc2ccc(O)cc2)NC(=O)[C@H](CC(C)C)NC(=O)[C@H](C)N)C(N)=O)C1=O` (stereo partly drawn) [C19G-NEM] (H-ALYKKLLKKLLKSAKKLGC(Succinimide(1-Et,3-yl))-NH2; N-terminus assumed), the MIC (E. coli 0111:B4; 0111:B4) is reported as 6 µg/mL (≈ 2.64 µM), the BDA (E. coli H16 [4]) is reported as 2.5 to 5 µg/mL and the MIC (Salmonella 34576) is reported as 6 µg/mL (≈ 2.64 µM). The MIC (E. coli H16 [3]) was 10 µg/mL (≈ 4.4 µM).

`CC(C)C[C@H](NC(=O)[C@H](Cc1ccccc1)NC(=O)[C@H](CCCNC(=N)N)NC(=O)[C@H](CCCCN)NC(=O)[C@H](CCC(N)=O)NC(=O)[C@H](C)NC(=O)[C@H](CCCCN)NC(=O)[C@H](Cc1c[nH]c2ccccc12)NC(=O)[C@H](CCCCN)NC(=O)[C@@H](N)CS)C(=O)N[C@@H](CCCCN)C(=O)O` [C90-99, cys-lys-trp-lys-ala-gln-lys-arg-phe-leu-lys, reference compound] showed an MIC (E. coli 0111:B4; 0111:B4) greater than 75 µg/mL and an MIC (E. coli HB101; HB101) greater than 75 µg/mL.

`O=C(Nc1ccc(O[C@H]2O[C@H](CO)[C@@H](O)[C@H](O)[C@@H]2O)cc1)c1ccccc1` [N-benzoyl derivative, 4-Benzamidophenyl-α-D-mannopyranoside] was tested, and the “activity relative to methyl α-mannopyranoside” value (type I pili) was 1000 fold.

With `O=C(ON1C(=O)CC(S(=O)(=O)O)C1=O)c1cccc(N2C(=O)C=CC2=O)c1` (stereo not drawn) [Sulfo-MBS, m-Maleimidobenzoyl-N-hydroxysulfosuccinimide ester] the “activity against S. aureus (in words)” value (S. aureus) was “inactive”.

For `OCCS` [beta-mercaptoethanol], the “activity against S. aureus (in words)” value (S. aureus) was “inactive”.

`NCCO` [ethanolamine] was tested, and the “activity against S. aureus (in words)” value (S. aureus) was “inactive”.

Compound `CC1(C)S[C@@H]2[C@H](N)C(=O)N2[C@H]1C(=O)O` [native aminopenicillanic acid, 6-aminopenicillanic acid] has an MIC (S. aureus; Staphylococcus aureus, read-out: MIC) of 250 µg/mL (≈ 1160 µM).

For `CC1(C)S[C@@H]2[C@H](NC(=O)[C@H](N)c3ccc(O)cc3)C(=O)N2[C@H]1C(=O)O` [native amoxicillin, amoxicillin], the MIC (S. aureus) was 250 µg/mL (≈ 684 µM).

Compound `CC1=C(C(=O)O)N2C(=O)[C@@H](NC(=O)[C@H](N)c3ccc(O)cc3)[C@H]2SC1` [native cefadroxil, cefadroxil] has an MIC (S. aureus; [5]) of 0.028 A280.

Cysteinyl-PMB [PMB-Cys] was tested, and the MIC (E. coli 0111:B4; [6]) was 0.7 µg/mL, the MIC (E. coli 0111:B4; Table 41) was 0.8 to 1 µg/mL and the “antibiotic activity (in words)” value (E. coli) was “Active”.

Imminothiolated PMB [PMB-Traut's] was tested, and the “loss of anti-bacterial activity relative to PMB” value (E. coli HB101) was 40-80 fold and the MIC (E. coli HB101; Table 41) was 4 µg/mL.

For “Lysyl S-Succinamidyl (Fluorescein) PMB [PMB-Lys-FL]”, the MIC (E. coli 0111:B4; [6]) was 1 µg/mL.

For Lysyl-PMB [PMB-Lys], the MIC (E. coli 0111:B4; [6]) was 2.0 µg/mL, the MIC (E. coli 0111:B4; Table 41) was 2 µg/mL and the “antibiotic activity (in words)” value (E. coli) was “Active”.

In the case of Monoalanyl PMB [PMB-Ala], the MIC (E. coli 0111:B4; [6]) is reported as 0.7 µg/mL, the MIC (E. coli 0111:B4; Table 41) is reported as 0.8 to 2 µg/mL and the “antibiotic activity (in words)” value (E. coli) is reported as “Active”.

In the case of PMB-NHCOCH2SCOCH3 [PMB-SATA], the “loss of anti-bacterial activity relative to PMB” value (E. coli HB101) is reported as “about 10 fold”, the MIC (E. coli HB101; Table 41) is reported as 0.6 µg/mL and the “antibiotic activity (in words)” value (E. coli) is reported as “Less Active”.

In the case of “PMB-S-Mercaptosuccinyl-succinimidyl-fluorescein [PMB-SAMSA-Mal-FL]”, the MIC (E. coli 0111:B4; [6]) is reported as 10 µg/mL and the MIC (E. coli 0111:B4; Table 44) is reported as 4 to 20 µg/mL.

With Polymyxin B-fluoroscein [PMB-NHS-FL] the “loss of anti-bacterial activity relative to PMB” value (E. coli HB101) was 10-20 fold and the MIC (E. coli HB101; Table 44) was 0.8 to 1 µg/mL.

“S-(Acetomidomethyl)-t-butoxycarbonylcysteinyl PMB [PMB-Boc-Cys (ACM)]” showed an MIC (E. coli 0111:B4; [6]) of 6.0 µg/mL and an MIC (E. coli 0111:B4; Table 41) of 5 µg/mL.

With “S-(Acetomidomethyl)cysteinyl PMB [PMB-Cys (ACM)]” the MIC (E. coli 0111:B4; [6]) was 1.2 µg/mL and the MIC (E. coli 0111:B4; Table 41) was 5 µg/mL.

In the case of “S-Acetylmercaptosuccinyl PMB [PMB-SAMSA]”, the MIC (E. coli 0111:B4; [6]) is reported as 3.1 µg/mL, the MIC (E. coli 0111:B4; Table 41) is reported as 3 µg/mL and the “loss of anti-bacterial activity relative to PMB” value (E. coli HB101) is reported as 10-30 fold. For the same compound, the MIC (E. coli HB101; Table 41) was 0.5 to 3 µg/mL.

“S-hydroxyethylthio maleimidomethyl cyclohexane carboxyl-N-cefadroxil ester” showed an MIC (S. aureus; [5]) of 1.6 A280.

In the case of “S-hydroxyethylthio-maleimidobenzoyl-N-aminocephalosporanic acid ester”, the MIC (S. aureus; [5]) is reported as 0.86 A280.

In the case of “ala-leu-tyr-lys-lys-leu-leu-lys-lys-leu-leu-lys-ser-ala-lys-lys-leu-gly-cys-amide [C19G]”, the “lower activity than C18G” value (E. coli H16 [4]) is reported as “about 5 fold” and the BDA (E. coli H16 [4]) is reported as 25 to 50 µg/mL.

“t-butoxycarbonyl-alanine-polymyxin B [PMB-BOC-Ala]” was tested, and the MIC (E. coli 0111:B4; Table 41) was 2 µg/mL.

“α,ε-di-t-Butoxycarbonyl-lysyl-PMB [α,ε-di-t-butoxycarbonyl lysyl derivative]” was tested, and the “antibiotic activity (in words)” value (E. coli) was “significantly less active”.

“α-Boc-ε{flourescein) thiocarbamoyl}-lysyl PMB [PMB-Boc-Lys-FL]” showed an MIC (E. coli 0111:B4; [6]) of 12.5 µg/mL.
